What was measured:
Assay type in all cases: cell-based
[1] = target: T1, human β2 adrenergic receptor (Homo sapiens, UniProt P07550); assay: Whole-cell cAMP Flashplate assay, heterologously expressed receptor; conditions: HEK-293 cells
T1 construct: expressed in transfected cells; host or cells: HEK-293
Method: (§1) cAMP assays were performed in a radioimmunoassay format using the Flashplate Adenylyl Cyclase Activation Assay System with [^125I]-cAMP (NEN SMP004, PerkinElmer Life Sciences Inc., Boston, Mass.), according to the manufacturers instructions. For the determination of β1 and β2 […], […] HEK-293 cell lines stably expressing cloned human, β1 and β2 receptors were grown to near confluency in DMEM supplemented with 10% FBS and Geneticin (500 μg/mL). For the determination β3 receptor agonist potency (EC50), CHO-K1 cell line stably expressing cloned human or β3 adrenergic receptors was grown to near confluency in Hams F-12 media supplemented with 10% FBS and Geneticin (250 μg/mL). Cells were rinsed with PBS and detached in dPBS (Dulbecco's Phosphate Buffered Saline, without CaCl2 and MgCl2) containing 2 mM EDTA or Trypsin-EDTA solution (0.05% trypsin/0.53 mM EDTA). After counting cells in Coulter cell counter, cells were pelleted by centrifugation at 1,000 rpm and re-suspended in stimulation buffer containing IBMX (PerkinElmer Kit) pre-warmed to room temperature to a concentration of 1.6×10^6 to 2.8×10^6 cells/mL. About 40,000 to 80,000 cells per well were used in this assay. Test compounds (10 mM in DMSO) were diluted into PBS containing 0.1% BSA in Beckman Biomek-2000 and tested at 11 different concentrations ranging from 100 μM to 1 pM. Reactions were incubated for 10 min at 37° C. and stopped by adding 100 μL of cold detection buffer containing [^125I]-cAMP (NEN SMP004, PerkinElmer Life Sciences, Boston, Mass.). The amount of cAMP produced (pmol/well) was calculated based on the counts observed for the samples and cAMP standards as described in the manufacturer's user manual. Data were analyzed by nonlinear regression analysis with the GraphPad Prism Software package (GraphPad Software, Inc., San Diego, Calif.) with the sigmoidal equation. The Cheng-Prusoff equation (Cheng Y, and Prusoff W H., Biochemical Pharmacology, 1973, 22, 23, 3099-108) was used to calculate the […] values.

[2] = target: T2, human β3 adrenergic receptor (Homo sapiens, UniProt P13945); assay: as above; conditions: CHO-K1 cells
T2 construct: expressed in transfected cells; host or cells: CHO / CHO-K1
T2 sequence (P13945 whole entry): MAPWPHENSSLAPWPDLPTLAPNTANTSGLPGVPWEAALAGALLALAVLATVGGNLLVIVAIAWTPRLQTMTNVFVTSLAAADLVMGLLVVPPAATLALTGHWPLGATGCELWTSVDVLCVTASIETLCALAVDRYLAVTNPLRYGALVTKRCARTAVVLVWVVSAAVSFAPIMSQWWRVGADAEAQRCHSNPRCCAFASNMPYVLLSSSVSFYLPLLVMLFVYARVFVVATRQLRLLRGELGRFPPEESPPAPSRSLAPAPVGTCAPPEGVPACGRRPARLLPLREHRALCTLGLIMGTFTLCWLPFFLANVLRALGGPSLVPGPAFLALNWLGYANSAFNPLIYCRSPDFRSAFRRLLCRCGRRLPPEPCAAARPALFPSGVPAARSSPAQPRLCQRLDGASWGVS
Method: as §1

[3] = target: T3, human β1 adrenergic receptor (Homo sapiens, UniProt P08588); assay: as above; conditions: HEK-293 cells
T3 construct: expressed in transfected cells; host or cells: HEK-293
T3 sequence (P08588 whole entry): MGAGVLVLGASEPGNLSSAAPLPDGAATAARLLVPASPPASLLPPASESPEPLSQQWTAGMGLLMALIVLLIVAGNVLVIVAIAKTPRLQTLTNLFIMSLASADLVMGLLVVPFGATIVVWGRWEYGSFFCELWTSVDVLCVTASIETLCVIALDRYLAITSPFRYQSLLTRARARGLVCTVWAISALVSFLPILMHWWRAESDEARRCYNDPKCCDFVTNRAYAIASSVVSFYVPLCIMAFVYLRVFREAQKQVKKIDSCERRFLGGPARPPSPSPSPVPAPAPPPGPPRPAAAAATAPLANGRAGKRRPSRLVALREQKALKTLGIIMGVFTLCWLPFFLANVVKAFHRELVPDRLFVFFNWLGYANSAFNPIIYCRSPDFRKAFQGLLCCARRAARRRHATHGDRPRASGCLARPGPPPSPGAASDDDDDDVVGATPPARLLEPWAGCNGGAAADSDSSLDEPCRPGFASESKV
Method: as §1

[4] = target: T4, hM3 receptor (Homo sapiens, UniProt P20309); assay: Blockade of agonist-mediated calcium release via FLIPR (Assay C); conditions: CHO cells stably expressing hM3
T4 construct: expressed in transfected cells; host or cells: CHO
T4 sequence (P20309 whole entry): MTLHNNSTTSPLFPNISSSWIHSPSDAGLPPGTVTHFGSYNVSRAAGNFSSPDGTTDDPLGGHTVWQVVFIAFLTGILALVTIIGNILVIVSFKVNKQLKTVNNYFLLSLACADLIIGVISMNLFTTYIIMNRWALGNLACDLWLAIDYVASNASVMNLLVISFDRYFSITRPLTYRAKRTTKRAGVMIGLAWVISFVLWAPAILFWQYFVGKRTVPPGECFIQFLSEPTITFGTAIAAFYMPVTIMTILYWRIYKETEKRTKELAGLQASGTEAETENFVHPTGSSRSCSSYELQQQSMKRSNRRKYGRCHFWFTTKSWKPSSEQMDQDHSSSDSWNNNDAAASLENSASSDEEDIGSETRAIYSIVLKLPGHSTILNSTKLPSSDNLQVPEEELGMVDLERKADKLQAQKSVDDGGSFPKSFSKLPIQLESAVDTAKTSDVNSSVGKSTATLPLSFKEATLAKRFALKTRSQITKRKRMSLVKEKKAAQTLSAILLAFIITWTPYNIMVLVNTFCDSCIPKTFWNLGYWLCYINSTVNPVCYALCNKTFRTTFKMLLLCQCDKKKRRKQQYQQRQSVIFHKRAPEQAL
Method: (§2) In this functional assay, the functional potency of a test compound as an antagonist of hM1, hM3 and […] receptors was determined by measuring the ability of the test compound to inhibit agonist-mediated increases in intracellular calcium.
(§3) CHO cells stably expressing the receptors were seeded into 96-well FLIPR plates the night before the assay was done. Seeded cells were washed twice with FLIPR buffer (10 mM HEPES, pH 7.4, 2 mM calcium chloride, 2.5 mM probenecid in Hank's Buffered Salt Solution (HBSS) without calcium and magnesium) using Cellwash (MTX Labsystems, Inc.) to remove growth media. After washing, each well contained 50 μL of FLIPR buffer. The cells were then incubated with 50 μL/well of 4 μM FLUO-4AM (a 2× solution was made) for 40 minutes at 37° C., 5% carbon dioxide. Following the dye incubation period, cells were washed two times with FLIPR buffer, leaving a final volume of 50 μL in each well.
(§4) The dose-dependent stimulation of intracellular Ca^2+ release for oxotremorine was determined so that the test compound could be measured against oxotremorine stimulation at an EC90 concentration. Cells were first incubated with compound dilution buffer for 20 minutes and then oxotremorine was added. […]
(§5) The parameters used for the FLIPR were: exposure length of 0.4 seconds, laser strength of 0.5 watts, excitation wavelength of 488 nm, and emission wavelength of 550 nm. Baseline was determined by measuring the change in fluorescence for 10 seconds prior to addition of oxotremorine. Following oxotremorine stimulation, the FLIPR continuously measured the change of fluorescence every 0.5 to 1 second for 1.5 minutes to capture the maximum fluorescence change.
(§6) The change of fluorescence was expressed as maximum fluorescence minus baseline fluorescence for each well. The raw data was analyzed against the logarithm of test compound concentration by nonlinear regression with GraphPad Prism (GraphPad Software, Inc., San Diego, Calif.) using the built-in model for sigmoidal dose-response. […]

[5] = target: T5, hM1 receptor (Homo sapiens, UniProt P11229); assay: as above; conditions: CHO cells stably expressing hM1
T5 construct: expressed in transfected cells; host or cells: CHO
T5 sequence (P11229 1-460): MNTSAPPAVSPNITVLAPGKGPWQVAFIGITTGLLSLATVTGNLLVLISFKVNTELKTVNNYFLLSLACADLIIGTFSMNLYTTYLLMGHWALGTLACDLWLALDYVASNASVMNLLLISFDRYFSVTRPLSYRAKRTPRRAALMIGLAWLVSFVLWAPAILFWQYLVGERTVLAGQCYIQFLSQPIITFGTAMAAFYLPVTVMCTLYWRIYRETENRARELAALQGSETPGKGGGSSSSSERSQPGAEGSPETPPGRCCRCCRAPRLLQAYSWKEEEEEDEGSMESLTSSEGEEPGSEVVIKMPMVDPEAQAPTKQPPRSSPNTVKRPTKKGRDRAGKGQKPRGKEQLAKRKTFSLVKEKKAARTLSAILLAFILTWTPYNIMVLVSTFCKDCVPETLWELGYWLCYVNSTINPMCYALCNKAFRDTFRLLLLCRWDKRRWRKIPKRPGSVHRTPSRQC
Method: as §2, §3, §4, §5, §6

[6] = tested on: cM5 receptor; assay: as above; conditions: CHO cells stably expressing cM5
Method: as §2, §3, §4, §5, §6

T1 sequence (P07550 whole entry): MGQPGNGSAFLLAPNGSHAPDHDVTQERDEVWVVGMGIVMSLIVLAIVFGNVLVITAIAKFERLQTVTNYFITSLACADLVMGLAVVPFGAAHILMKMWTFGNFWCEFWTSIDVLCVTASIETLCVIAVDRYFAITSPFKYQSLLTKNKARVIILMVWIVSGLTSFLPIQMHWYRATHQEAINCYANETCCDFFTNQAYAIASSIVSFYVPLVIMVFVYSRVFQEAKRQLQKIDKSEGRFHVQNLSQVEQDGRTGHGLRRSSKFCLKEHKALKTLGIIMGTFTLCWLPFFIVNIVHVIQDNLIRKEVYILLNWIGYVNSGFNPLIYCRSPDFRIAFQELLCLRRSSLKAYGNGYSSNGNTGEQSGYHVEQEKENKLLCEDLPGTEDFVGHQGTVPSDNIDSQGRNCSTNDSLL

**Q.** `Cc1cc(NC(=O)CCN2CCC(OC(=O)Nc3ccccc3-c3ccccc3)CC2)c(C)cc1CNC[C@H](O)c1ccc(O)c(NC=O)c1` [compound of formula I, biphenyl-2-ylcarbamic acid 1-[2-(4-{[(R)-2-(3-formylamino-4-hydroxyphenyl)-2-hydroxyethylamino]methyl}-2,5-dimethylphenylcarbamoyl)ethyl]-piperidin-4-yl ester] was tested. Which EC50 [1] did it give?
**A.** Its EC50 is less than 10 nM.

**Q.** What about the EC50 [2] of the same compound?
**A.** Its EC50 is greater than 700 nM.

**Q.** What about the EC50 [3] of the same compound?
**A.** The EC50 was roughly 30 nM.

**Q.** And the “Kobs for blockade of agonist-mediated calcium release” value [4]?
**A.** Its value is “less than 10 nM”.

**Q.** What about the “Kobs for blockade of agonist-mediated calcium release” value [5] of the same compound?
**A.** Its value is “less than 10 nM”.

**Q.** And the “Kobs for blockade of agonist-mediated calcium release” value [6]?
**A.** The value was “less than 10 nM”.

— patent US7880010B2, “Crystalline forms of a dimethylphenyl compound” (Theravance, Inc., priority 2006, dated 2011)
